Patent US10160747B2, “Compounds and methods for kinase modulation, and indications therefor” (Plexxikon Inc., priority 2016, dated 2018)

Columns and labels:
FLT3-D835Y = biological target: T1, FLT3-D835Y (Homo sapiens, UniProt P36888, D835Y); test: FLT3-D835Y recombinant enzyme kinase assay (AlphaScreen); type: biochemical; details: 8 pt, GMean
T1 construct: purchased Invitrogen PV3967
T1 sequence (P36888 27-993 D835Y): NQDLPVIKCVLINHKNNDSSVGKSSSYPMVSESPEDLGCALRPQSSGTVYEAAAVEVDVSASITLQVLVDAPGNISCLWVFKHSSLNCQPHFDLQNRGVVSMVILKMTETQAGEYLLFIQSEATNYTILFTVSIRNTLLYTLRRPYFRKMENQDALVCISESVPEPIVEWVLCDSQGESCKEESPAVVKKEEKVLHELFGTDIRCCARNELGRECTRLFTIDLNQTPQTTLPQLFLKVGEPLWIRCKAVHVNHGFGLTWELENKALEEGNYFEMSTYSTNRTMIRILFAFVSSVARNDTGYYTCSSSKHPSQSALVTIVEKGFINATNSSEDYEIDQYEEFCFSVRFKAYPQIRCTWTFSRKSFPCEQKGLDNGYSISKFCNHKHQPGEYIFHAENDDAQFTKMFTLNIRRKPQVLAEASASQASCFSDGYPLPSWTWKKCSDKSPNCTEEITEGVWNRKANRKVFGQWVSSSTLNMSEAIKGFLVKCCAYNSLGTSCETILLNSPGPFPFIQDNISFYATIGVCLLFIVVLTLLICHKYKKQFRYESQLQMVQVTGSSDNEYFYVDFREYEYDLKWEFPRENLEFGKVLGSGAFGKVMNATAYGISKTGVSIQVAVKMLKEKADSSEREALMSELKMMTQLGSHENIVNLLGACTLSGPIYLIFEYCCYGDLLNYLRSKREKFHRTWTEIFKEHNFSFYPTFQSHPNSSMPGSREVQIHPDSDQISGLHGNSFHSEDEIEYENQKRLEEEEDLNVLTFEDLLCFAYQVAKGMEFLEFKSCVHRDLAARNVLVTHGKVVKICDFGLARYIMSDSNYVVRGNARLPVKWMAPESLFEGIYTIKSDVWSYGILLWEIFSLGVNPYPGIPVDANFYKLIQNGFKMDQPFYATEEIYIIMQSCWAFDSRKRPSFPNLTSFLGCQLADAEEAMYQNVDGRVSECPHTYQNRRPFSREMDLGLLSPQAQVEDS
Summary of the method: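 AlphaScreen proximity signal at 580 nm, from PY20 acceptor and streptavidin donor beads, measures tyrosine phosphorylation of 30 nM biotin-poly(Glu4-Tyr) peptide by recombinant kinase. ATP: 10 μM (FLT3 mutants), 100 μM (c-KIT). IC50 from loss of signal.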

[1] = tested on: MOLM-14 D835Y (endogenous FLT3 ITD and transfected FLT3 D835Y); test: MOLM-14 D835Y cell proliferation assay (CellTiter-Glo); type: cell-based; details: Homo sapiens, MOLM-14, 72 h; 3 d growth, GMean
Summary of the method: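 MOLM-14 derivatives carrying D835Y or F691L, selected under escalating AC220, were seeded at 1×10^4 cells/well and exposed to an 8-point 1:3 compound series (1 to 0.00046 μM, 0.2% DMSO final) for three days at 37° C., 5% CO2. CellTiter-Glo luminescence (ATP content) versus concentration gave IC50.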

Row | Compound | IC50 (FLT3-D835Y) | IC50 [1]
1 | COc1ncc(NC(=O)Cc2ccc(-c3cnc4[nH]c(-c5ccc(C#N)nc5)cc4c3)cc2F)cc1C(F)(F)F [Compound P-0011, 2-[4-[2-(6-cyano-3-pyridyl)-1H-pyrrolo[2,3-b]pyridin-5-yl]-2-fluoro-phenyl]-N-[6-methoxy-5-(trifluoromethyl)-3-pyridyl]acetamide] | 0.0001 to 10 µM | 0.0001 to 10 µM
2 | COc1ncc(NC(=O)Cc2ccc(-c3cnc4[nH]c(-c5ccnc(C#N)c5)cc4c3)cc2F)cc1C(F)(F)F [Compound P-0013, 2-[4-[2-(2-cyano-4-pyridyl)-1H-pyrrolo[2,3-b]pyridin-5-yl]-2-fluoro-phenyl]-N-[6-methoxy-5-(trifluoromethyl)-3-pyridyl]acetamide] | 0.0001 to 10 µM | 0.0001 to 10 µM
3 | COc1ncc(NC(=O)Cc2ccc(-c3cnc4[nH]c(-c5ccc(C#N)nc5)cc4c3)c(F)c2)cc1C(F)(F)F [Compound P-0014, 2-[4-[2-(6-cyano-3-pyridyl)-1H-pyrrolo[2,3-b]pyridin-5-yl]-3-fluoro-phenyl]-N-[6-methoxy-5-(trifluoromethyl)-3-pyridyl]acetamide] | 0.0001 to 10 µM | 0.0001 to 10 µM
4 | COc1ncc(NC(=O)Cc2ccc(-c3cnc4[nH]c(-c5cnn(C(F)F)c5)cc4c3)cc2F)cc1C(F)(F)F [Compound P-0015, 2-[4-[2-[1-(difluoromethyl)pyrazol-4-yl]-1H-pyrrolo[2,3-b]pyridin-5-yl]-2-fluoro-phenyl]-N-[6-methoxy-5-(trifluoromethyl)-3-pyridyl]acetamide] | 0.0001 to 10 µM | 0.0001 to 10 µM
5 | COc1ncc(NC(=O)Cc2ccc(-c3cnc4[nH]c(-c5ccnc(C#N)c5)cc4c3)c(F)c2)cc1C(F)(F)F [Compound P-0016, 2-[4-[2-(2-cyano-4-pyridyl)-1H-pyrrolo[2,3-b]pyridin-5-yl]-3-fluoro-phenyl]-N-[6-methoxy-5-(trifluoromethyl)-3-pyridyl]acetamide] | 0.0001 to 10 µM | 0.0001 to 10 µM
6 | Cn1cc(Nc2ncc(-c3ccc(CC(=O)Nc4cc(C(F)(F)F)ccn4)cc3F)cn2)cn1 [Compound P-0017, 2-[3-fluoro-4-[2-[(1-methylpyrazol-4-yl)amino]pyrimidin-5-yl]phenyl]-N-[4-(trifluoromethyl)-2-pyridyl]acetamide] | 0.0001 to 10 µM | 0.0001 to 10 µM
7 | Cn1cnc(Nc2ncc(-c3ccc(CC(=O)Nc4cc(C(F)(F)F)ccn4)cc3F)cn2)c1 [Compound P-0018, 2-[3-fluoro-4-[2-[(1-methylimidazol-4-yl)amino]pyrimidin-5-yl]phenyl]-N-[4-(trifluoromethyl)-2-pyridyl]acetamide] | 0.0001 to 10 µM | 0.0001 to 10 µM
8 | Cn1cc(Nc2ncc(-c3cc(F)c(CC(=O)Nc4cc(C(F)(F)F)ccn4)cc3F)cn2)cn1 [Compound P-0019, 2-[2,5-difluoro-4-[2-[(1-methylpyrazol-4-yl)amino]pyrimidin-5-yl]phenyl]-N-[4-(trifluoromethyl)-2-pyridyl]acetamide] | 0.0001 to 10 µM | 0.0001 to 10 µM
9 | Cn1cnc(Nc2ncc(-c3cc(F)c(CC(=O)Nc4cc(C(F)(F)F)ccn4)cc3F)cn2)c1 [Compound P-0020, 2-[2,5-difluoro-4-[2-[(1-methylimidazol-4-yl)amino]pyrimidin-5-yl]phenyl]-N-[4-(trifluoromethyl)-2-pyridyl]acetamide] | 0.0001 to 10 µM | 0.0001 to 10 µM
10 | O=C(Cc1cc(F)c(-c2cnc(Nc3cnn(C(F)F)c3)nc2)cc1F)Nc1cc(C(F)(F)F)ccn1 [Compound P-0021, 2-[4-[2-[[1-(difluoromethyl)pyrazol-4-yl]amino]pyrimidin-5-yl]-2,5-difluoro-phenyl]-N-[4-(trifluoromethyl)-2-pyridyl]acetamide] | 0.0001 to 10 µM | 0.0001 to 10 µM
11 | Cn1cnc(Nc2ncc(-c3ccc(CC(=O)Nc4cc(C(F)(F)F)ccn4)cc3)cn2)c1 [Compound P-0022, 2-[4-[2-[(1-methylimidazol-4-yl)amino]pyrimidin-5-yl]phenyl]-N-[4-(trifluoromethyl)-2-pyridyl]acetamide] | 0.0001 to 10 µM | 0.0001 to 10 µM
12 | O=C(Cc1ccc(-c2cnc(Nc3cnn(C(F)F)c3)nc2)cc1)Nc1cc(C(F)(F)F)ccn1 [Compound P-0023, 2-[4-[2-[[1-(difluoromethyl)pyrazol-4-yl]amino]pyrimidin-5-yl]phenyl]-N-[4-(trifluoromethyl)-2-pyridyl]acetamide] | 0.0001 to 10 µM | 0.0001 to 10 µM
13 | COc1cc(-c2cc3cc(-c4ccc(CC(=O)Nc5cncc(C(F)(F)F)c5)cc4F)cnc3[nH]2)ccn1 [Compound P-0200, 2-(3-fluoro-4-(2-(2-methoxypyridin-4-yl)-1H-pyrrolo[2,3-b]pyridin-5-yl)phenyl)-N-(5-(trifluoromethyl)pyridin-3-yl)acetamide] |  | 0.0001 to 10 µM
14 | O=C(Cc1ccc(-c2cnc3[nH]c(-c4ccnc(N5CCOCC5)c4)cc3c2)c(F)c1)Nc1cncc(C(F)(F)F)c1 [Compound P-0201, 2-[3-fluoro-4-[2-(2-morpholino-4-pyridyl)-1H-pyrrolo[2,3-b]pyridin-5-yl]phenyl]-N-[5-(trifluoromethyl)-3-pyridyl]acetamide] | 0.0001 to 10 µM | 0.0001 to 10 µM
15 | CCOc1n[nH]c2ncc(-c3ccc(CC(=O)Nc4cnc(OC)c(C(F)(F)F)c4)cc3F)cc12 [Compound P-0202, 2-[4-(3-ethoxy-1H-pyrazolo[3,4-b]pyridin-5-yl)-3-fluoro-phenyl]-N-[6-methoxy-5-(trifluoromethyl)-3-pyridyl]acetamide] | 0.0001 to 10 µM | 0.0001 to 10 µM
16 | COc1ncc(NC(=O)Cc2ccc(-c3cnc4[nH]nc(N)c4c3)c(F)c2)cc1C(F)(F)F [Compound P-0203, 2-[4-(3-amino-1H-pyrazolo[3,4-b]pyridin-5-yl)-3-fluoro-phenyl]-N-[6-methoxy-5-(trifluoromethyl)-3-pyridyl]acetamide] | 0.0001 to 10 µM | 0.0001 to 10 µM
17 | CC(C)(O)C#Cc1cc2cc(-c3ccc(CC(=O)Nc4cncc(C(F)(F)F)c4)cc3)cnc2[nH]1 [Compound P-0204, 2-[4-[2-(3-hydroxy-3-methyl-but-1-ynyl)-1H-pyrrolo[2,3-b]pyridin-5-yl]phenyl]-N-[5-(trifluoromethyl)-3-pyridyl]acetamide] | 0.0001 to 10 µM | 0.0001 to 10 µM
18 | Cn1cc(Nc2ncc(-c3ccc(CC(=O)Nc4cncc(C(F)(F)F)c4)cc3F)cn2)cn1 [Compound P-0205, 2-[3-fluoro-4-[2-[(1-methylpyrazol-4-yl)amino]pyrimidin-5-yl]phenyl]-N-[5-(trifluoromethyl)-3-pyridyl]acetamide] | 0.0001 to 10 µM | 0.0001 to 10 µM
19 | COc1ncc(NC(=O)Cc2ccc(-c3cnc(Nc4cnn(C)c4)nc3)c(F)c2)cc1C(F)(F)F [Compound P-0206, 2-[3-fluoro-4-[2-[(1-methylpyrazol-4-yl)amino]pyrimidin-5-yl]phenyl]-N-[6-methoxy-5-(trifluoromethyl)-3-pyridyl]acetamide] | 0.0001 to 10 µM | 0.0001 to 10 µM
20 | Cn1cc(Nc2ncc(-c3cc(F)c(CC(=O)Nc4cncc(C(F)(F)F)c4)cc3F)cn2)cn1 [Compound P-0207, 2-[2,5-difluoro-4-[2-[(1-methylpyrazol-4-yl)amino]pyrimidin-5-yl]phenyl]-N-[5-(trifluoromethyl)-3-pyridyl]acetamide] | 0.0001 to 10 µM | 0.0001 to 10 µM
21 | COc1ncc(NC(=O)Cc2cc(F)c(-c3cnc(Nc4cnn(C)c4)nc3)cc2F)cc1C(F)(F)F [Compound P-0208, 2-[2,5-difluoro-4-[2-[(1-methylpyrazol-4-yl)amino]pyrimidin-5-yl]phenyl]-N-[6-methoxy-5-(trifluoromethyl)-3-pyridyl]acetamide] | 0.0001 to 10 µM | 0.0001 to 10 µM
22 | O=C(Cc1ccc(-c2cnc(Nc3cnn(C(F)F)c3)nc2)cc1)Nc1cncc(C(F)(F)F)c1 [Compound P-0209, 2-[4-[2-[[1-(difluoromethyl)pyrazol-4-yl]amino]pyrimidin-5-yl]phenyl]-N-[5-(trifluoromethyl)-3-pyridyl]acetamide] | 0.0001 to 10 µM | 0.0001 to 10 µM
23 | COc1ncc(NC(=O)Cc2ccc(-c3cnc4[nH]c(C#CC(C)(C)C)cc4c3)cc2)cc1C(F)(F)F [Compound P-0219, 2-[4-[2-(3,3-dimethylbut-1-ynyl)-1H-pyrrolo[2,3-b]pyridin-5-yl]phenyl]-N-[6-methoxy-5-(trifluoromethyl)-3-pyridyl]acetamide] |  | 0.0001 to 10 µM
